According to US6486199B1, “Spiro and dispiro 1,2,4-trioxolane antimalarials” (Medicines for Malaria Venture MMV International Centre …, priority 2001, dated 2002):
≈ marks a conversion by molar mass, not a printed value. Marks after values point to notes of the source that are not given here.

Legend:
[1] = system: chloroquine-resistant K1 strain of P. falciparum; assay: in vitro screen against chloroquine-resistant K1 strain of P. falciparum; assay type: cell-based; settings: for IC50: Plasmodium falciparum, K1, read-out: IC50 (ng/ml) K1; for in vitro potency, fold less potent than the analog / IC50 (ng/ml) K1: in vitro; for IC50 (ng/ml) K1: K1 strain
[2] = system: chloroquine-sensitive NF54 strain of P. falciparum; assay: in vitro screen against chloroquine-sensitive NF54 strain of P. falciparum; assay type: cell-based; settings: for IC50: Plasmodium falciparum, NF54, read-out: IC50 (ng/ml) NF54; for IC50 (ng/ml) NF54: in vitro, NF54 strain
[3] = system: ANKA strain of P. Berghei; assay: single dose STI in vivo screen in infected Moro SPF mice; settings: for in vivo activity: 10 mg/kg po/sc data of Table 2; for Activity (%) po / Activity (%) sc: percent reduction in parasitemia day 3 post-infection; for Activity (%) po / Survival (days) po: single 10 mg/kg po; for Activity (%) sc / Survival (days) sc: single 10 mg/kg sc
[4] = system: 21-day-old schistosomules of Schistosoma mansoni; assay: effect on 21-day-old schistosomules in mice; assay type: in vivo; settings: single 200 mg/kg per os; for FWR (%): female worm reduction rate; for Mean female worm burden: mean ± standard deviation; for TWR (%): total worm reduction rate
Protocol: […] Each group was treated per os with OZ compounds at a single dose of 200 mg/kg. Untreated mice served as the control. All groups were killed 4 weeks after treatment and the liver and intestine were removed and separated. The liver and intestine were compressed and alive male and female worms could be seen and counted. The effect of the compounds was evaluated by mean total and female worm burden.

[5] = system: adult schistosomes (49-day-old) of Schistosoma mansoni; assay: effect on adult schistosomes (49-day-old) in mice; assay type: in vivo; settings: single 400 mg/kg per os; for TWR (%): total worm reduction rate; for Mean total worm burden: x ± SD
Protocol: Mice were infected with 100 Schistosoma mansoni cercariae […]. Each group was treated per os with OZ compounds at a single dose of 400 mg/kg. Untreated mice served as the control. All groups were killed 4 weeks after treatment and the liver and intestine were removed and separated. The liver and intestine were compressed and alive male and female worms could be seen and counted.

[6] = differential scanning calorimetry (DSC), thermal stability; assay type: physicochemical; settings: thermal decomposition
P. berghei [7] = assay: 1-day Peters test against P. berghei in vivo; settings: for oral activity based on po ED50/ED90 values: ranking among trioxolanes and controls
P. berghei [8] = assay: 4-day Peters test against P. berghei in vivo; settings: 4 day
[9] = system: adult schistosomes (49-day-old) of Schistosoma mansoni; assay: effect on adult schistosomes (49-day-old) in mice; assay type: in vivo; settings: dose used was 200 mg/kg
parasitemia = assay: onset of drug action and recrudescence after single oral dose; assay type: in vivo
Protocol: The reduction of parasitemia was monitored 12 h after treatment, and the time of recrudescence was assessed by daily blood smears for 14 days, followed by intermittent assessment for up to 30 days.

Row | Compound | IC50 [1] [ng/mL] | IC50 [2] [ng/mL] | in vivo activity [3] | Activity (%) po [3] | Activity (%) sc [3] | FWR (%) [4] [%] | Mean female worm burden [4] | TWR (%) [4] [%] | Percentage of dead worm [5] | Total dead worm [5] | TWR (%) [5] [%] | Mean total worm burden [5] | Tm dec. (° C.) [6] [°C] | P. berghei (1 day) ED50 po (P. berghei [7]) [mg/kg] | P. berghei (1 day) ED90 po (P. berghei [7]) [mg/kg] | P. berghei (1 day) ED90 sc (P. berghei [7]) | P. berghei (4 day) ED50 po (P. berghei [8]) [mg/kg] | P. berghei (4 day) ED90 po (P. berghei [8]) [mg/kg] | P. berghei (4 day) ED50 sc (P. berghei [8]) [mg/kg] | P. berghei (4 day) ED90 sc (P. berghei [8]) [mg/kg] | also measured
1 | O=C1CCC2(CC1)OOC1(CCCCCCCCCCC1)O2 [OZ21, 3-Oxo-7,20,21-trioxadispiro[5.1.11.2]heneicosane] | 14 (≈ 0.0451 µM) | 25 (≈ 0.0805 µM) | all in vivo activity was lost | 0/0% | 0/0% | 0 | 15.0 ± 9.7 | 0 | 0 | 0 | 0 | 36.2 ± 9.0 | 190.7 | – | – | – | – | – | – | – | in vitro potency, fold less potent than the analog [1]: 70 fold
2 | CCOC(=O)N1CCC2(CC1)OOC1(O2)C2CC3CC(C2)CC1C3 (centres unmarked) [OZ23, Adamantane-2-spiro-3′-8′-ethoxycarbonyl-1′,2′,4′-trioxa-8′-azaspiro[4.5]decane] | – | – | best in vivo activity | – | – | 84 | 2.0 ± 1.0^b | 90 | – | – | – | – | 160.8 | 1.6 | 5.5 | NA/1.9 mg/kg | 0.9 | 2.0 | 0.5 | 0.9 | oral activity based on po ED50/ED90 values (P. berghei [7]): only slightly less orally active than OZ11; Percentage of dead worm [9]: 4 (5/124); Total dead worm [9]: 5; TWR (%) ([9]; total worm reduction rate): 0%; Mean total worm burden ([9]; x ± SD): 39.7 ± 19.6
3 | c1ccc(C2CCC3(CC2)OOC2(O3)C3CC4CC(C3)CC2C4)cc1 (centres unmarked) [OZ27, Adamantane-2-spiro-3′-8′-phenyl-1′,2′,4′-trioxaspiro[4.5]decane] | – | – | – | – | – | 58 | 5.2 ± 1.6^b | 63 | 9.6 (15/157) | 15 | 19.6 | 28.4 ± 9.5^a | 161.7 | 1.9 | 3.2 | 3.1 mg/kg | 1.3 | 2.6 | 0.2 | 0.9 | IC50 (ng/ml) K1 [1]: 2.2 ng/mL (≈ 0.00646 µM); IC50 (ng/ml) NF54 [2]: 4.8 ng/mL (≈ 0.0141 µM); antimalarial activity, overall assessment ([3]; overall judgement of in vitro and in vivo data of Table 2): excellent activity; P. berghei (1 day) ED50 sc (P. berghei [7]): 1.8 mg/kg; oral activity based on po ED50/ED90 values (P. berghei [7]): only slightly less orally active than OZ11; duration of action compared with artemether (parasitemia; single 100 mg/kg po): longer; Recrudescence (>5% parasitemia) occurs on day (parasitemia; single 100 mg/kg po on day +3 post-infection): 11 days
4 | O=[N+]([O-])c1ccc(NN=C2CCC3(CC2)OOC2(O3)C3CC4CC(C3)CC2C4)c([N+](=O)[O-])c1 (centres unmarked) [OZ29, Adamantane-2-spiro-3′-1′,2′,4′-trioxaspiro[4.5] decan-8′-one 2,4-dinitrophenylhydrazone] | 9.7 (≈ 0.0212 µM) | 13 (≈ 0.0284 µM) | – | 0/0% | 0/0% | 20 | 10.0 ± 3.7^a | 28 | 0 | 0 | 13.4 | 31.0 ± 13.7^a | 155.7 | – | – | – | – | – | – | – | Survival (days) po [3]: 5.0/5.0 days; Survival (days) sc [3]: 5.0/5.0 days
5 | OC1CCC2(CC1)OOC1(O2)C2CC3CC(C2)CC1C3 (centres unmarked) [OZ32, Adamantane-2-spiro-3′-8′-hydroxy-1′,2′,4′-trioxaspiro[4.5]decane] | – | – | – | – | – | 70 | 3.8 ± 1.9^b | 73 | 27.6 (50/181) | 50 | 26.8 | 26.2 ± 5.9^b | 147.9 | 1.9 | 13 | 2.1 mg/kg | 2.6 | 5.1 | 0.6 | 1.3 | IC50 (ng/ml) K1 [1]: 0.25 ng/mL (≈ 0.000892 µM); IC50 (ng/ml) NF54 [2]: 0.51 ng/mL (≈ 0.00182 µM); P. berghei (1 day) ED50 sc (P. berghei [7]): > 1 mg/kg
6 | CC1(C)COC2(CCC3(CC2)OOC2(CC(C)(C)CC(C)(C)C2)O3)OC1 [OZ36, 2,2,4,4,14,14-Hexamethyl-7,12,16,19,20-pentaoxatrispiro[5.1.2.5.2.2]icosane] | 24 (≈ 0.0651 µM) | 62 (≈ 0.168 µM) | all in vivo activity was lost | 0/0% | 0/0% | 12 | 11.0 ± 4.0^a | 16 | 0 | 0 | 0 | 40.2 ± 12.2 | 201.7 | – | – | – | – | – | – | – | in vitro potency, fold less potent than the analog [1]: ~20 fold; Survival (days) po [3]: 5.7/5.7 days; Survival (days) sc [3]: 5.7/5.7 days
